BindingDB's records for doi:10.1021/jm00352a016 (1983)

Molecular target: Adenylate kinase 2 (Rattus norvegicus) (UniProt P29410)
Assay: Inhibitory activity against rat adenylate kinase II (AK-II) isoenzyme was determined in the presence of ATP, non competitive inhibition

Work on `Nc1ncnc2c1ncn2[C@@H]1O[C@H](CO)[C@@H](O)[C@H]1O` [[U-14C]adenosine] yielded a Ki of 87 mM.
